Data on 13 molecules can be found in patent US7524853B2 (Solvay Pharmaceuticals B.V., priority 2003, dated 2009).

Molecules are shown by their SMILES.

The inhibition is the drop in the measured response relative to a control, in per cent.

Type in all cases: cell-based
In test [1] the target is T1, 17β-hydroxysteroid dehydrogenase type 3 (17β-HSD type 3) (Homo sapiens, UniProt P37058).
T1 construct: expressed in transfected cells; host or cells: MCF-7
T1 sequence (P37058 1-310): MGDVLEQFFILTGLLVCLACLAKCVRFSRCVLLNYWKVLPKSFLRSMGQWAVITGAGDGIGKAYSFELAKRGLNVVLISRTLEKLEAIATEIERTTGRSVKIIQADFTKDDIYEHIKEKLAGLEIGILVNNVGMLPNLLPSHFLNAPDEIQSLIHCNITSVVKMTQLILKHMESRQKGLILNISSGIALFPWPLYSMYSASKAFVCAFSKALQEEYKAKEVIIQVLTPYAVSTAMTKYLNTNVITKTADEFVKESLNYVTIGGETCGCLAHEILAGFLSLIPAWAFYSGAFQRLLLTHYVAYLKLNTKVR
Nature of the test: Inhibition of 17β-HSD type 3 in MCF-7 cells stably expressing the isoenzyme (tritium labeled androstenedione conversion, HPLC). Particulars: MCF7, MCF-7 cells expressing 17β-HSD type 3, 2 nM tritium labeled androstenedione; for inhibition at 1 µM: 1 μM test compound, read-out: % Inhibition HSD3 1 μM; for inhibition at 10 µM: 10 μM test compound, read-out: % Inhibition HSD3 10 μM. An outline of the steps: (§1)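 MCF-7 lines stably expressing each 17β-HSD isoenzyme incubated in growth medium with compound at two concentrations and 2 nM tritiated substrate (estrone, type 1; estradiol, type 2; androstenedione, type 3). Reaction stopped with TCA; conversion measured by HPLC with flow scintillation, inhibition relative to compound-free control.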

In test [2] the target is T2, 17β-hydroxysteroid dehydrogenase type 1 (17β-HSD type 1) (Homo sapiens, UniProt P14061).
T2 construct: expressed in transfected cells; host or cells: MCF-7
T2 sequence (P14061 1-328): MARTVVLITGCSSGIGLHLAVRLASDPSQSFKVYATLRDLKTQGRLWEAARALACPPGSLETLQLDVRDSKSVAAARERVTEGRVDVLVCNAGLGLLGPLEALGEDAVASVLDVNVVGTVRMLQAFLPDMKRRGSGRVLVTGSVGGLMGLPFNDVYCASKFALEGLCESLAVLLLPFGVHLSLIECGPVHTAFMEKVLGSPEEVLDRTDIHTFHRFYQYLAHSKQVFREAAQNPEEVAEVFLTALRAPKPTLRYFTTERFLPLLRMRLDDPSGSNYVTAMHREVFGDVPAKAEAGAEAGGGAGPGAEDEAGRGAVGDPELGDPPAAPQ
Nature of the test: Inhibition of 17β-HSD type 1 in MCF-7 cells stably expressing the isoenzyme (tritium labeled estrone conversion, HPLC). As to conditions: MCF7, MCF-7 cells expressing 17β-HSD type 1, 2 nM tritium labeled estrone; for inhibition at 1 µM: 1 μM test compound, read-out: % Inhibition HSD1 1 μM; for inhibition at 10 µM: 10 μM test compound, read-out: % Inhibition HSD1 10 μM. The procedure, abridged:
as §1

The target in test [3] is T3, 17β-hydroxysteroid dehydrogenase type 2 (17β-HSD type 2) (Homo sapiens, UniProt P37059).
T3 construct: expressed in transfected cells; host or cells: MCF-7
T3 sequence (P37059 1-387): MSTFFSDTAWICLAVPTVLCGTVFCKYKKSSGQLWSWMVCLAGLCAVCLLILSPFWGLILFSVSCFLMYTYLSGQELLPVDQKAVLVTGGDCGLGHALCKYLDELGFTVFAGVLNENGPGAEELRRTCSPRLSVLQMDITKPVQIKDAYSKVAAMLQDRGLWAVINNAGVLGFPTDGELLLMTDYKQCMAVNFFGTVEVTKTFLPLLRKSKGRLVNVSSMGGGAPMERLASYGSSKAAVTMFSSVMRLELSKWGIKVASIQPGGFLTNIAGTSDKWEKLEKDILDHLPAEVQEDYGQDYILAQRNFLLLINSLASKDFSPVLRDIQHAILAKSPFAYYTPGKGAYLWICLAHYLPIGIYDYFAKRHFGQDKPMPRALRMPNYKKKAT
Nature of the test: Inhibition of 17β-HSD type 2 in MCF-7 cells stably expressing the isoenzyme (tritium labeled estradiol conversion, HPLC). Particulars: MCF7, MCF-7 cells expressing 17β-HSD type 2, 2 nM tritium labeled estradiol; for inhibition at 1 µM: 1 μM test compound, read-out: % Inhibition HSD2 1 μM; for inhibition at 10 µM: 10 μM test compound, read-out: % Inhibition HSD2 10 μM. An outline of the steps:
as §1

For `COc1cc(-c2nc3sc4c(c3c(=O)n2Cc2ccccc2)C(C)CCC4)cc(OC)c1OC` (stereo not drawn) [No. 683, 3-Benzyl-5-methyl-2-(3,4,5-trimethoxyphenyl)-5,6,7,8-tetrahydro-3H-benzo[4,5]thieno[2,3-d]pyrimidin-4-one], the figures for the inhibition at 1 µM in test [1], in test [2] and in test [3] were 8.1%, 16.8% and 9.2%, respectively. In addition, the figures for the inhibition at 10 µM in test [1], in test [2] and in test [3] were 37.7%, 32.9% and 18.8%, respectively.

On to `COc1cc(-c2nc3sc4c(c3c(=O)n2Cc2ccccc2)C(C)CCC4=O)cc(OC)c1OC` (stereo not drawn) [No. 684, 3-Benzyl-5-methyl-2-(3,4,5-trimethoxyphenyl)-6,7-dihydro-3H,5H-benzo[4,5]thieno[2,3-d]pyrimidin-4,8-dione], for which the inhibition at 1 µM in test [1] stood at 24.7%; in test [2] it was 24.6%; in test [3], 9.2%. In addition, the inhibition at 10 µM came to 10.5% in test [1], 63.3% in test [2] and 11% in test [3].

Turning to `COc1cc(-c2nc3sc4c(c3c(=O)n2Cc2ccccc2)C(C)CC(Br)C4=O)c(Br)c(OC)c1OC` (stereo not drawn) [No. 685, 3-Benzyl-7-bromo-2-(2-bromo-3,4,5-trimethoxyphenyl)-5-methyl-6,7-dihydro-3H,5H-benzo[4,5]thieno[2,3-d]pyrimidine-4,8-dione], the figures for the inhibition at 1 µM in test [1], in test [2] and in test [3] were 5.1%, 16.6% and 22.7%, respectively. The inhibition at 10 µM in test [1] was determined as 13.8%; in test [2], 31.2%; in test [3], 19.9%.

As to `COc1cc(-c2nc3sc4c(O)ccc(C)c4c3c(=O)n2Cc2ccccc2)c(Br)c(OC)c1OC` [No. 686, 3-Benzyl-2-(2-bromo-3,4,5-trimethoxyphenyl)-8-hydroxy-5-methyl-3H-benzo[4,5]thieno[2,3-d]pyrimidin-4-one], the inhibition at 1 µM is -1.1% in test [1], 2.1% in test [2] and 2.1% in test [3]. The inhibition at 10 µM was 7.1% in test [1], 15% in test [2] and 4.3% in test [3].

For the molecule `COc1cc(-c2nc3sc4c(c3c(=O)n2Cc2ccccc2)CC(C)CC4)cc(OC)c1OC` (stereo not drawn) [No. 687, 3-Benzyl-6-methyl-2-(3,4,5-trimethoxyphenyl)-5,6,7,8-tetrahydro-3H-benzo[4,5]thieno[2,3-d]pyrimidin-4-one], the inhibition at 1 µM in test [1] was 1.7%; in test [2] it was -3.3%; in test [3], 8.3%. Also, the results for the inhibition at 10 µM in test [1], in test [2] and in test [3] were 7.3%, 5.5% and 5.6%, respectively.

Regarding `COc1cc(-c2nc3sc4c(c3c(=O)n2Cc2ccccc2)CC(C)CC4=O)cc(OC)c1OC` (stereo not drawn) [No. 688, 3-Benzyl-6-methyl-2-(3,4,5-trimethoxyphenyl)-6,7-dihydro-3H,5H-benzo[4,5]thieno[2,3-d]pyrimidin-4,8-dione], the inhibition at 1 µM in test [1] amounted to 14.4%; in test [2], 21.5%; in test [3], 25.4%. Further, the results for the inhibition at 10 µM in test [1], in test [2] and in test [3] were 22.3%, 21.6% and 14.2%, respectively.

For `COc1cc(-c2nc3sc4c(c3c(=O)n2Cc2ccccc2)CC(C)C(Br)C4=O)c(Br)c(OC)c1OC` (stereo not drawn) [No. 689, 3-Benzyl-7-bromo-6-methyl-2-(2-bromo-3,4,5-trimethoxyphenyl)-6,7-dihydro-3H-benzo[4,5]thieno[2,3-d]pyrimidin-4,8-dione], the inhibition at 1 µM in test [1] is -2.4%; in test [2] it was 7.7%; in test [3], -3%. Further, the inhibition at 10 µM in test [1] is 17.4%; in test [2] it was 5.7%; in test [3] it was 5.7%.

As for `COc1cc(-c2nc3sc4c(O)cc(C)cc4c3c(=O)n2Cc2ccccc2)c(Br)c(OC)c1OC` [No. 690, 3-Benzyl-2-(2-bromo-3,4,5-trimethoxyphenyl)-8-hydroxy-6-methyl-3H-benzo[4,5]thieno[2,3-d]pyrimidin-4-one], the inhibition at 1 µM is -2.7% in test [1], 17.3% in test [2] and 14.2% in test [3]. Moreover, the inhibition at 10 µM in test [1] was found to be 6.4%; in test [2] it was 19.2%; in test [3], 23.5%.

For `CCCCn1c(-c2cc(OC)c(OC)c(OC)c2)nc2sc3c(c2c1=O)CC(C)CC3` (stereo not drawn) [No. 691, 3-Butyl-6-methyl-2-(3,4,5-trimethoxyphenyl)-5,6,7,8-tetrahydro-3H-benzo[4,5]thieno[2,3-d]pyrimidin-4-one], the inhibition at 1 µM is -5.3% in test [1], 7% in test [2] and 2.1% in test [3]. Also, the inhibition at 10 µM is 11.9% in test [1], 22.6% in test [2] and -6.3% in test [3].

With `CCCCn1c(-c2cc(OC)c(OC)c(OC)c2)nc2sc3c(c2c1=O)CC(C)CC3=O` (stereo not drawn) [No. 692, 3-Butyl-6-methyl-2-(3,4,5-trimethoxyphenyl)-6,7-dihydro-3H,5H-benzo[4,5]thieno[2,3-d]pyrimidin-4,8-dione], the inhibition at 1 µM in test [1] is 9.8%; in test [2] it was 18%; in test [3], 12.7%. The inhibition at 10 µM in test [1] stood at 35%; in test [2] it was 28.6%; in test [3], 21%.

With `CCCCn1c(-c2cc(OC)c(OC)c(OC)c2Br)nc2sc3c(c2c1=O)CC(C)C(Br)C3=O` (stereo not drawn) [No. 693, 3-Butyl-7-bromo-6-methyl-2-(2-bromo-3,4,5-trimethoxyphenyl)-6,7-dihydro-3H-benzo[4,5]thieno[2,3-d]pyrimidin-4,8-dione], the inhibition at 1 µM in test [1] stood at 5.2%; in test [2], 15%; in test [3], 18.1%. Moreover, the inhibition at 10 µM in test [1] was 16.8%; in test [2], 5.7%; in test [3] it was 18.2%.

Regarding `CCCCn1c(-c2cc(OC)c(OC)c(OC)c2Br)nc2sc3c(O)cc(C)cc3c2c1=O` [No. 694, 3-Butyl-2-(2-bromo-3,4,5-trimethoxyphenyl)-8-hydroxy-6-methyl-3H-benzo[4,5]thieno[2,3-d]pyrimidin-4-one], the inhibition at 1 µM in test [1] came out at 5.8%; in test [2], 12.1%; in test [3] it was 6.2%. Further, the figures for the inhibition at 10 µM in test [1], in test [2] and in test [3] were 21.1%, 10.9% and 15.8%, respectively.

As to `CCCCn1c(-c2cc(OC)c(OC)c(O)c2Br)nc2sc3c(O)c(Br)c(C)cc3c2c1=O` [No. 699, 7-Bromo-2-(2-bromo-3-hydroxy4,5-dimethoxyphenyl)-3-butyl-8-hydroxy-6-methyl-3H-benzo[4,5]thieno[2,3-d]pyrimidin-4-one], the inhibition at 1 µM stood at 7.4% in test [1], 5.9% in test [2] and 16.1% in test [3]. Further, the inhibition at 10 µM in test [1] worked out at 8.5%; in test [2], 7.3%; in test [3] it was 19.6%.
